Assays:
[1] = subchronic
[2] = subchronic, duration: 90 days, oral, diet

COc1cnc(C)s1 [Thiazole, 5-methoxy-2-methyl-]
NOAEL ([1]; duration: 90 days): 8.6 mg/kg-day

CC(=O)c1ccnc(C)n1 [Ethanone, 1-(2-methyl-4-pyrimidinyl)-]
NOAEL (Rattus norvegicus; subchronic, duration: 90 days, Sprague-Dawley): 1 mg/kg-day

CCCc1ccn(-c2ccccc2)n1 [1H-Pyrazole, 1-phenyl-3(or 5)-propyl-]
NOAEL [1]: 25 mg/kg-day

CC(=O)c1nccs1 [2-Acetylthiazole]
NOAEL (Rattus norvegicus; [2]): 50 mg/kg-day

c1csc(SSc2cccs2)c1 [2-Thienyl disulfide]
NOAEL (Rattus norvegicus; [2]): 0.29 mg/kg-day

CCC(=O)c1nccs1 [2-Propionylthiazole]
NOAEL (Rattus norvegicus; [2]): 50 mg/kg-day

Cc1ccc2c(c1)OC(=O)C2C (stereo unspecified) [3,6-Dimethyl-1-benzofuran-2(3H)-one]
NOAEL (Rattus norvegicus; subchronic, duration: 90 days, oral): 5.42 mg/kg-day

COCCO [Methoxyethanol]
NOAEL (Rattus norvegicus; chronic): 6 mg/kg-day

Cc1ncc2c(n1)CSC2 [5,7-Dihydro-2-methylthieno[3,4-d]pyrimidine]
NOAEL (Rattus norvegicus; subchronic, duration: 90 days): 6.6 mg/kg-day

COCCOC(C)OCc1ccccc1 (stereo unspecified) [{[1-(2-Methoxyethoxy)ethoxy]methyl}benzene]
NOAEL (Rattus norvegicus; chronic): 6 mg/kg-day

C[S+](C)CC[C@H](N)C(=O)O.[Cl-] [L-Methylmethionine sulfonium chloride]
NOAEL (Rattus norvegicus; chronic, duration: 14 weeks, oral, diet, M/F, Wistar, no effects): 250 mg/kg-day
